Values joined by “and” are separate entries in the source; they are usually repeats but may differ in a detail not shown here. Equal values may be shown once. Read-outs that look alike come from different tables or passages of the source.
Columns and labels:
[1] = tested on: Leishmania amazonensis promastigotes; assay: Anti-promastigote activity (XTT); type: cell-based; conditions: read-out: IC50 Promastigotes
Experimental: L. amazonensis (WHOM/BR/75/Josefa) promastigotes were cultured at 26°C in Schneider insect medium (Sigma), 10% fetal calf serum (Gibco-BRL, MD, US.) and 20 μg/mL of gentamycin (Schering-Plough, Rio de Janeiro, Brazil).
The leishmanicidal properties of the analogs were evaluated by measuring promastigotes’ mitochondrial activity using the XTT method with 2,3-bis-[2-methoxy-4-nitro-5-sulphophenyl]-2H-tetrazolium-5-carboxanilida, Sigma) as described previously. […] Sodium azide (10 μM) was used as a control, and the reaction product was read at 450 nm.

[2] = tested on: Leishmania amazonensis promastigotes; assay: Annexin V binding assay; type: cell-based; conditions: 48 h; piceatannol 100 μM, miltefosine 30 μM
Experimental: Double staining for annexin V-fluorescein isothiocyanate (FITC) and PI was performed with the Annexin-V apoptosis detection kit (Molecular Probes). […] They were then washed twice in cold annexin V-buffer and centrifuged at 2760 x g for 10 min. Pellets were resuspended in 20 μL of annexin V FITC, and after 15 min of incubation in the dark, 480 μL of annexin V-buffer was added according to the manufacturer instructions. Annexin V-FITC labeling was recorded on a BD FACScalibur (Becton and Dickson) and analyzed using CellQuest software.

[3] = tested on: Leishmania amazonensis promastigotes; assay: Cell cycle analysis (PI, flow cytometry); type: cell-based; conditions: 48 h; for Effect on the cell cycle of the parasite: at promastigote IC50; for % cells in different stages of the cell cycle: G0/G1 / % cells in different stages of the cell cycle: G2/M / % cells in different stages of the cell cycle: S / % cells in different stages of the cell cycle: Sub-G0 / % cells: Hyperploidies: pterostilbene 17.7 μM, piceatannol 65 μM, polydatin 95.4 μM, oxyresveratrol 65 μM, mean ± SEM
Experimental: The cells were washed with PBS and fixed in 70% (v/v) ice-cold methanol/PBS for at least 1 h at 4°C. The fixed cells were washed once with PBS and then incubated in PBS supplemented with 10 μg/mL propidium iodide (PI) and 20 μg/mL RNAse at 37°C, 45 min, as reported. For each sample, 10000 events were collected on a BD FACScalibur (Becton and Dickson) and analyzed using CellQuest software.

[4] = tested on: L. amazonensis intracellular amastigotes; assay: Anti-amastigote activity in infected macrophages; type: cell-based, Leishmania amazonensis; conditions: for IC50: L. amazonensis in murine peritoneal macrophages, 24 h treatment; for SI (selectivity index; therapeutic index): ratio of CC50 on murine peritoneal macrophages to IC50 on L. amazonensis intracellular amastigotes
Experimental: Mice peritoneal macrophages obtained after stimulation with thioglycolate for 3 days were harvested in RPMI 1640 medium (LGC Biotecnologia, São Paulo, Brazil), 20 μg/mL of gentamycin and were plated onto 13 mm^2 coverslips inside 24-well plates for adherence for 2 h at 37°C, 5% CO2. Non-adherent cells were removed, and the macrophages were incubated overnight in RPMI supplemented with 10% FCS, as described above. Adhered macrophages were infected with L. amazonensis promastigotes (stationary growth phase) at a 10:1 parasite/macrophage ratio and incubated for 1 h at 34°C, 5% CO2. Free parasites were washed out with 0.01 M phosphate buffered saline (PBS), and the cultures maintained for 24 h at 37°C, 5% CO2. Infected macrophage cultures were treated with different concentrations of the analogs for an additional 24 h at 37°C, 5% CO2. Monolayers were then washed with PBS at 37°C, fixed in methanol, and stained with Giemsa. The number of amastigotes and the percentage of infected macrophages were determined by counting at least 200 cells in duplicate cultures. Endocytic indices were obtained by multiplying the percentage of infected macrophages by the mean number of amastigotes per infected macrophage. The results were expressed as the percentage of surviving macrophages based on endocytic indices of treated and untreated macrophages as reported previously.
The selectivity index was calculated as the ratio of murine peritoneal macrophages CC50 by L. amazonensis intracellular amastigotes IC50.

[5] = tested on: murine peritoneal macrophages; assay: Nitric oxide production by macrophages (Griess); type: cell-based, mouse
Experimental: Thioglycolate-stimulated peritoneal macrophages were obtained as described above (10^6 cells/well in 24-well plate) and were activated with 1 μg/ml LPS (Sigma-Aldrich) or left untreated. […] The nitrite concentrations in the culture supernatants were determined using the Griess method. The reaction was read at 540 nm, and the concentration of NO2 ^- determined using a standard curve of sodium nitrite. The results are expressed as micromolar concentrations of nitrite.

[6] = Nitric oxide-trapping capacity, cell-free SNAP system; conditions: 1 mM SNAP, 6 h, rutin 1 mM, pterostilbene 33.2 μM, piceatannol 45 μM, polydatin 29 μM, oxyresveratrol 30.5 μM
Experimental: A cell-free system with an NO donor was used to test the capacity of resveratrol analogs to trap NO. SNAP (s-nitroso n-acetyl DL-penicillamine, Sigma) liberates nitric oxide in solution, which is then transformed to nitrite in the medium. The addition of a NO scavenger to the SNAP solution results in nitrite decay in the supernatant. […] One milimolar rutin (Sigma), a known NO scavenger, was used as a positive control for this assay. After 6 h of incubation, the nitrite concentration was determined using the Griess method. The results are expressed as the μM concentration of nitrite calculated in comparison with the sodium nitrite standard curve.

[7] = tested on: murine peritoneal macrophages; assay: Detection of reactive oxygen species (DHR 123); type: cell-based, mouse; conditions: compounds at amastigote IC50
Experimental: Mice peritoneal macrophages were adhered to 96-well opaque culture plates and then infected or not with L. amazonensis promastigotes. […] The cells were then stained with 50 μM dihydrorhodamine 123 (DHR 123, Life Technologies), and ROS was measured immediately using 500/526 nm excitation/emission wavelengths.

[8] = tested on: promastigote form of L. infantum; parameters: method as in PMID 23103597; conditions: cited from earlier work
[9] = tested on: amastigote form of L. infantum; parameters: method as in PMID 23103597; conditions: cited from earlier work
[10] = Leishmania amazonensis, Peritoneal macrophage
[11] = macrophages infected with L. amazonensis, 29 μM polydatin, 30.5 μM oxyresveratrol
[12] = L. amazonensis infected macrophages
[13] = infected and PMA-stimulated macrophages
[14] = uninfected macrophages stimulated with 1 μg/mL PMA
[15] = L. amazonensis promastigotes, 48 h treatment, XTT
[16] = uninfected macrophages not stimulated, 33.2 μM pterostilbene, 29 μM polydatin

Molecule	IC50 ([1]; Leishmania amazonensis, 48 h) [µM]	Effect on the cell cycle of the parasite [3]	% cells in different stages of the cell cycle: G0/G1 [3] [%]	% cells in different stages of the cell cycle: G2/M [3] [%]	% cells in different stages of the cell cycle: S [3] [%]	% cells in different stages of the cell cycle: Sub-G0 [3] [%]	% cells: Hyperploidies [3] [%]	IC50 [4, 10] [µM]	SI (selectivity index; therapeutic index) [4]	Decrease of NO production [5, 11] [fold]	Decrease of NO levels (NO scavenging) [6]	Reduction of ROS levels [7, 12] [fold]	Reduction of ROS levels [7, 13] [fold]	Reduction of ROS levels [7, 14] [fold]	Reduction of ROS levels ([7]; uninfected macrophages) [fold]	IC50 [1, 15] [µM]	Decrease of NO production [5, 16] [fold]	other results
C[C@@H]1[C@H](O)[C@@H](C)/C=C/C=C/C=C/C=C/C=C/C=C/C=C/[C@H](O[C@@H]2O[C@H](C)[C@@H](O)[C@H](N)[C@@H]2O)C[C@@H]2O[C@](O)(C[C@@H](O)C[C@@H](O)[C@H](O)CC[C@@H](O)C[C@@H](O)CC(=O)O[C@H]1C)C[C@H](O)[C@H]2C(=O)O [Amphotericin B, reference compound]	0.1																	
CCCCCCCCCCCCCCCCOP(=O)([O-])OCC[N+](C)(C)C [Miltefosine, reference compound]																		Increase of annexin-V positive promastigotes in relation to untreated control [2]: 13.2 fold
Oc1cc(O)cc(/C=C/c2ccc(O)cc2O)c1 [Oxyresveratrol, trans-2,3′,4,5′-tetrahydroxystilbene]	65	did not alter the cell cycle	34.380 ± 2.300	21.073 ± 2.386	9.570 ± 0.444	10.413 ± 3.895	24.862 ± 2.500	30.5	4.2	2.0	did not reduce the levels of NO	4.6	4.7	4.8	3.6			
OC[C@H]1O[C@@H](Oc2cc(O)cc(/C=C/c3ccc(O)cc3)c2)[C@H](O)[C@@H](O)[C@@H]1O [Polydatin, resveratrol-3-O-b-mono-D-glucoside]		did not alter the cell cycle	32.040 ± 2.699	20.090 ± 2.661	8.698 ± 0.946	13.250 ± 4.747	26.233 ± 1.273	29	5.2	6.1	did not reduce the levels of NO	2.1	2.2	2.0	1.8	95.5	2.8	IC50 ([1]; Leishmania amazonensis, 48 h, L. amazonensis promastigotes, 48 h treatment, XTT): 95 µM
C[C@@H]1O[C@@H](OC[C@H]2O[C@@H](Oc3c(-c4ccc(O)c(O)c4)oc4cc(O)cc(O)c4c3=O)[C@H](O)[C@@H](O)[C@@H]2O)[C@H](O)[C@H](O)[C@H]1O [rutin, reference compound]											72%							
trans-3,5-dimethoxy-4-hydroxystilbene [Pterostilbene]		did not alter the cell cycle	42.380 ± 1.006	24.713 ± 1.331	7.823 ± 0.915	4.423 ± 0.216	20.873 ± 0.309				22%	1.6	1.6	2.0		17.7	3.8	IC50 [4]: 33.2 µM; IC50 ([1]; L. amazonensis promastigotes, 48 h treatment, XTT, listed as pterostilbene): 18 µM; Decrease of NO production ([5]; uninfected macrophages stimulated with LPS, 33.2 μM pterostilbene, 45 μM piceatannol): 5.3 fold; LD50 promastigote form of L. infantum [8]: 7.6 μg/mL and 29.6 μM; LD50 amastigote form of L. infantum [9]: 10.3 μg/mL and 40.2 μM

From publication PMC4627731, “Leishmanicidal Effect of Synthetic trans-Resveratrol Analogs” (PLoS ONE, 2015)
